Data: patent US11473045B2, “Device for in-vitro modelling in-vivo tissues of organs” (priority 2013, dated 2022)

Test system: Lung bronchial epithelial cells (16HBEo-)
Experimental: FIG. 14 illustrates the effects of a physiologic (10% linear), cyclic mechanical strain on the permeability of an epithelial barrier. Lung bronchial epithelial cells (16HBEo-) were seeded at a density of 250'000 cells/cm^2 onto the fibronectin-coated culturing membrane. The cells were allowed to adhere and to grow for 72 h. The cells were exposed to cyclic strain (10% linear, 0.2 Hz) for 19 h, whereas the control was kept at static conditions. […] After 2 h of incubation, the permeability of each molecule was measured with a fluorescence multiplate reader (Tecan Infinite M1000; Ex:460/Em:515 & Ex:553/Em:627).

FITC-sodium
transmembrane permeability of stretched cells compared to control cells in static conditions: significantly increased transmembrane permeability
